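GI50 is the concentration that inhibits growth by half. At the TGI there is no net growth.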
Columns and labels:
Test in all cases: NCI anticancer screen, dose series, 384-well format
NCI-H322M lung = tested on: NCI-H322M lung
HOP-92 NSCLC = tested on: HOP-92 NSCLC
SK-MEL-28 melanoma = tested on: SK-MEL-28 melanoma
MDA-MB-435 melanoma = tested on: MDA-MB-435 melanoma
SN12C renal = tested on: SN12C renal
RXF 393 renal = tested on: RXF 393 renal
TK-10 renal = tested on: TK-10 renal
HS 578T breast = tested on: HS 578T breast
SF-295 CNS = tested on: SF-295 CNS
NCI-H23 lung = tested on: NCI-H23 lung
NCI-H226 lung = tested on: NCI-H226 lung
UACC-257 melanoma = tested on: UACC-257 melanoma
M14 melanoma = tested on: M14 melanoma
LOX IMVI melanoma = tested on: LOX IMVI melanoma
RPMI-8226 leukemia = tested on: RPMI-8226 leukemia
MOLT-4 leukemia = tested on: MOLT-4 leukemia
SF-268 CNS = tested on: SF-268 CNS
SR leukemia = tested on: SR leukemia
OVCAR-5 ovarian = tested on: OVCAR-5 ovarian
NCI/ADR-RES ovarian = tested on: NCI/ADR-RES ovarian
SK-MEL-5 melanoma = tested on: SK-MEL-5 melanoma
U251 glioblastoma = tested on: U251 glioblastoma
786-0 renal = tested on: 786-0 renal
A549 NSCLC = tested on: A549 NSCLC
CCRF-CEM leukemia = tested on: CCRF-CEM leukemia
CAKI-1 renal = tested on: CAKI-1 renal
OVCAR-8 ovarian = tested on: OVCAR-8 ovarian
NCI-H460 NSCLC = tested on: NCI-H460 NSCLC
MDA-MB-468 breast = tested on: MDA-MB-468 breast
HT29 colon = tested on: HT29 colon
K-562 leukemia = tested on: K-562 leukemia
BT-549 breast = tested on: BT-549 breast
HCC-2998 colon = tested on: HCC-2998 colon
SF-539 CNS = tested on: SF-539 CNS
HCT-15 colon = tested on: HCT-15 colon
ACHN renal = tested on: ACHN renal
COLO 205 colon = tested on: COLO 205 colon
OVCAR-3 ovarian = tested on: OVCAR-3 ovarian
MALME-3M melanoma = tested on: MALME-3M melanoma
MDA-MB-231 breast = tested on: MDA-MB-231 breast
EKVX NSCLC = tested on: EKVX NSCLC
HL-60(TB) leukemia = tested on: HL-60(TB) leukemia
UACC-62 melanoma = tested on: UACC-62 melanoma
HCT-116 colon = tested on: HCT-116 colon
SK-OV-3 ovarian = tested on: SK-OV-3 ovarian
MCF7 breast = tested on: MCF7 breast
KM12 colon = tested on: KM12 colon
A498 renal = tested on: A498 renal
SW-620 colon = tested on: SW-620 colon
DU-145 prostate = tested on: DU-145 prostate
UO-31 renal = tested on: UO-31 renal
SNB-19 CNS = tested on: SNB-19 CNS
OVCAR-4 ovarian = tested on: OVCAR-4 ovarian
PC-3 prostate = tested on: PC-3 prostate
T-47D breast = tested on: T-47D breast
SNB-75 CNS = tested on: SNB-75 CNS

O=C1Nc2c(C(F)(F)F)cccc2[C@@]1(c1ccc(O)cc1)c1ccc(OC(F)(F)F)cc1
GI50 (NCI-H322M lung): < 10 nM | TGI (NCI-H322M lung): < 10 nM | GI50 (HOP-92 NSCLC): 44.3 nM | TGI (HOP-92 NSCLC): 20600 nM | GI50 (SK-MEL-28 melanoma): 12400 nM | TGI (SK-MEL-28 melanoma): 24900 nM | GI50 (MDA-MB-435 melanoma): 8620 nM | TGI (MDA-MB-435 melanoma): 20900 nM | GI50 (SN12C renal): < 10 nM | TGI (SN12C renal): 21.1 nM | GI50 (RXF 393 renal): < 10 nM | TGI (RXF 393 renal): < 10 nM | GI50 (TK-10 renal): < 10 nM | TGI (TK-10 renal): < 10 nM | GI50 (HS 578T breast): < 10 nM | TGI (HS 578T breast): < 10 nM | GI50 (SF-295 CNS): 21.2 nM | TGI (SF-295 CNS): 75.9 nM | GI50 (NCI-H23 lung): < 10 nM | TGI (NCI-H23 lung): 11.3 nM | GI50 (NCI-H226 lung): 10.8 nM | TGI (NCI-H226 lung): 27.6 nM | GI50 (UACC-257 melanoma): 12000 nM | TGI (UACC-257 melanoma): 24400 nM | GI50 (M14 melanoma): 3360 nM | TGI (M14 melanoma): 17200 nM | GI50 (LOX IMVI melanoma): 11.8 nM | TGI (LOX IMVI melanoma): 26.3 nM | GI50 (RPMI-8226 leukemia): 3030 nM | TGI (RPMI-8226 leukemia): 9540 nM | GI50 (MOLT-4 leukemia): 10400 nM | TGI (MOLT-4 leukemia): 22200 nM | GI50 (SF-268 CNS): 2010 nM | TGI (SF-268 CNS): 18100 nM | GI50 (SR leukemia): 2040 nM | TGI (SR leukemia): 4150 nM | GI50 (OVCAR-5 ovarian): 50.3 nM | TGI (OVCAR-5 ovarian): 20400 nM | GI50 (NCI/ADR-RES ovarian): < 10 nM | TGI (NCI/ADR-RES ovarian): 22.8 nM | GI50 (SK-MEL-5 melanoma): 10900 nM | TGI (SK-MEL-5 melanoma): 22900 nM | GI50 (U251 glioblastoma): 14900 nM | TGI (U251 glioblastoma): 28200 nM | GI50 ([…]-0 renal): 15300 nM | TGI (786-0 renal): 28700 nM | GI50 (A549 NSCLC): 34.1 nM | TGI (A549 NSCLC): 148 nM | GI50 (CCRF-CEM leukemia): 12800 nM | TGI (CCRF-CEM leukemia): 25500 nM | GI50 (CAKI-1 renal): 12900 nM | TGI (CAKI-1 renal): 25500 nM | GI50 (OVCAR-8 ovarian): < 10 nM | TGI (OVCAR-8 ovarian): < 10 nM | GI50 (NCI-H460 NSCLC): 13700 nM | TGI (NCI-H460 NSCLC): 27100 nM | GI50 (MDA-MB-468 breast): < 10 nM | TGI (MDA-MB-468 breast): < 10 nM | GI50 (HT29 colon): 12900 nM | TGI (HT29 colon): 25700 nM | GI50 (K-562 leukemia): 974 nM | TGI (K-562 leukemia): 17700 nM | GI50 (BT-549 breast): < 10 nM | TGI (BT-549 breast): < 10 nM | GI50 (HCC-2998 colon): < 10 nM | TGI (HCC-2998 colon): 41.5 nM | GI50 (SF-539 CNS): 1600 nM | TGI (SF-539 CNS): 13700 nM | GI50 (HCT-15 colon): 18.6 nM | TGI (HCT-15 colon): 15200 nM | GI50 (ACHN renal): 20.3 nM | TGI (ACHN renal): 47 nM | GI50 (COLO 205 colon): < 10 nM | TGI (COLO 205 colon): < 10 nM | GI50 (OVCAR-3 ovarian): < 10 nM | TGI (OVCAR-3 ovarian): 17 nM | GI50 (MALME-3M melanoma): 8370 nM | TGI (MALME-3M melanoma): 20800 nM | GI50 (MDA-MB-231 breast): 3860 nM | TGI (MDA-MB-231 breast): 18900 nM | GI50 (EKVX NSCLC): 17 nM | TGI (EKVX NSCLC): 55.1 nM | GI50 (HL-60(TB) leukemia): 2140 nM | TGI (HL-60(TB) leukemia): 3780 nM | GI50 (UACC-62 melanoma): 33.1 nM | TGI (UACC-62 melanoma): 5960 nM | GI50 (HCT-116 colon): 25.2 nM | TGI (HCT-116 colon): 16900 nM | GI50 (SK-OV-3 ovarian): 58.4 nM | TGI (SK-OV-3 ovarian): 13800 nM | GI50 (MCF7 breast): 12.1 nM | TGI (MCF7 breast): 62.2 nM | GI50 (KM12 colon): 14.5 nM | TGI (KM12 colon): 1130 nM | GI50 (A498 renal): 22 nM | TGI (A498 renal): 61.9 nM | GI50 (SW-620 colon): 7090 nM | TGI (SW-620 colon): 19400 nM | GI50 (DU-145 prostate): 31.3 nM | TGI (DU-145 prostate): 102 nM | GI50 (UO-31 renal): 15.1 nM | TGI (UO-31 renal): 28.8 nM | GI50 (SNB-19 CNS): 13200 nM | TGI (SNB-19 CNS): 26000 nM | GI50 (OVCAR-4 ovarian): < 10 nM | TGI (OVCAR-4 ovarian): < 10 nM | GI50 (PC-3 prostate): 12.3 nM | TGI (PC-3 prostate): 36.3 nM | GI50 (T-47D breast): < 10 nM | TGI (T-47D breast): < 10 nM | GI50 (SNB-75 CNS): < 10 nM | TGI (SNB-75 CNS): < 10 nM
